Reference: patent US10219516B2, “Molecules having pesticidal utility, and intermediates, compositions, and processes, related thereto” (priority 2015, dated 2019)

Columns and labels:
[1] = system: Cabbage Looper (Trichoplusia ni, TRIPNI); experiment: Bioassay on Cabbage Looper (CL), 128-well diet tray assay; assay type: in vivo; details: Trichoplusia ni; Species CL (Cabbage Looper); read-out: CL (Biological Results, rating)
Experimental: (§1) Certain molecules disclosed in this document were tested against BAW and CL using procedures described in the following examples. In the reporting of the results, the “BAW & CL Rating Table” was used (See Table Section).
Bioassays on CL were conducted using a 128-well diet tray assay. one to five second instar CL larvae were placed in each well (3 mL) of the diet tray that had been previously filled with 1 mL of artificial diet to which 50 μg/cm^2 of the test molecule (dissolved in 50 μL of 90:10 acetone-water mixture) had been applied (to each of eight wells) and then allowed to dry. Trays were covered with a clear self-adhesive cover, vented to allow gas exchange, and held at 25° C., 14:10 light-dark for five to seven days. Percent mortality was recorded for the larvae in each well; activity in the eight wells was then averaged. The results are indicated in the table entitled “Table ABC: Biological Results” (See Table Section).

[2] = system: Beet Armyworm (Spodoptera exigua, LAPHEG); experiment: Bioassay on Beet Armyworm (BAW), 128-well diet tray assay; assay type: in vivo; details: Species BAW (Beet Armyworm), read-out: BAW (Biological Results, rating)
Experimental: as §1
Bioassays on BAW were conducted using a 128-well diet tray assay. One to five second instar BAW larvae were placed in each well (3 mL) of the diet tray that had been previously filled with approximately 1.5 mL of artificial diet to which 50 μg/cm^2 of the test molecule (dissolved in 50 μL of 90:10 acetone-water mixture) had been applied (to each of eight wells) and then allowed to dry. Trays were covered with a clear self-adhesive cover, vented to allow gas exchange, and held at 25° C., 14:10 light-dark for five to seven days. Percent mortality was recorded for the larvae in each well; activity in the eight wells was then averaged. The results are indicated in the table entitled “Table ABC: Biological Results” (See Table Section).

| Structure (SMILES) | pest or weed control at 50 µg/cm2 [1] | pest or weed control at 50 µg/cm2 [2] |
| --- | --- | --- |
| O=C(Nc1c(F)cccc1F)c1cc(NC(=O)[C@H]2[C@H](c3cc(Cl)cc(C(F)(F)F)c3)C2(Cl)Cl)ccc1Cl (relative stereo) [F89, trans-2-Chloro-5-(2,2-dichloro-3-(3-chloro-5-(trifluoromethyl)phenyl)cyclopropane-1-carboxamido)-N-(2,6-difluorophenyl)benzamide] | 50 to 100% | 50 to 100% |
| O=C(Nc1ccc(F)cc1)c1cc(NC(=O)[C@H]2[C@H](c3cc(Br)cc(Br)c3)C2(Cl)Cl)ccc1Cl (relative stereo) [F90, trans-2-Chloro-5-(2,2-dichloro-3-(3,5-dibromophenyl)cyclopropane-1-carboxamido)-N-(4-fluorophenyl)benzamide] | 50 to 100% | 50 to 100% |
| O=C(Nc1c(F)cccc1F)c1cc(NC(=O)[C@H]2[C@H](c3cc(Br)cc(Br)c3)C2(Cl)Cl)ccc1Cl (relative stereo) [F92, trans-2-Chloro-5-(2,2-dichloro-3-(3,5-dibromophenyl)cyclopropane-1-carboxamido)-N-(2,6-difluorophenyl)benzamide] | 50 to 100% | 50 to 100% |
| N#Cc1ccc(NC(=O)c2cc(NC(=O)[C@H]3[C@H](c4cc(Cl)cc(Cl)c4)C3(Cl)Cl)ccc2F)c(F)c1 (relative stereo) [F93, trans-N-(4-Cyano-2-fluorophenyl)-5-(2,2-dichloro-3-(3,5-dichlorophenyl)cyclopropane-1-carboxamido)-2-fluorobenzamide] | 50 to 100% | 50 to 100% |
| N#Cc1ccc(NC(=O)c2cc(NC(=O)[C@H]3[C@H](c4ccc(Cl)c(Cl)c4)C3(Cl)Cl)ccc2F)c(F)c1 (relative stereo) [F94, trans-N-(4-Cyano-2-fluorophenyl)-5-(2,2-dichloro-3-(3,4-dichlorophenyl)cyclopropane-1-carboxamido)-2-fluorobenzamide] | 50 to 100% | 50 to 100% |
| N#Cc1ccc(NC(=O)c2cc(NC(=O)[C@H]3[C@H](c4cc(Cl)c(Cl)c(Cl)c4)C3(Cl)Cl)ccc2F)c(F)c1 (relative stereo) [F95, trans-N-(4-Cyano-2-fluorophenyl)-5-(2,2-dichloro-3-(3,4,5-trichlorophenyl)cyclopropane-1-carboxamido)-2-fluorobenzamide] | 50 to 100% | 50 to 100% |
| CN(C(=O)c1cc(NC(=O)[C@H]2[C@H](c3cc(Cl)c(F)c(Cl)c3)C2(Cl)Cl)ccc1Cl)c1ccc(F)cc1 (relative stereo) [F97, trans-2-Chloro-5-(2,2-dichloro-3-(3,5-dichloro-4-fluorophenyl)cyclopropane-1-carboxamido)-N-(4-fluorophenyl)-N-methylbenzamide] | 50 to 100% | 50 to 100% |
| O=C(Nc1c(F)cccc1F)c1cc(NC(=O)[C@H]2[C@H](c3cc(Cl)c(F)c(Cl)c3)C2(Cl)Cl)ccc1Cl (relative stereo) [F98, trans-2-Chloro-5-(2,2-dichloro-3-(3,5-dichloro-4-fluorophenyl)cyclopropane-1-carboxamido)-N-(2,6-difluorophenyl)benzamide] | 50 to 100% | 50 to 100% |
| C=CCN(C(=O)c1cc(NC(=O)[C@H]2[C@H](c3cc(Cl)cc(Cl)c3)C2(Cl)Cl)ccc1Cl)c1ccc(F)cc1 (relative stereo) [F102, trans-N-Allyl-2-chloro-5-(2,2-dichloro-3-(3,5-dichlorophenyl)cyclopropane-1-carboxamido)-N-(4-fluorophenyl)benzamide] | 50 to 100% | 50 to 100% |
| N#Cc1ccc(NC(=O)c2cc(NC(=O)[C@H]3[C@H](c4ccc(Cl)c(Cl)c4)C3(Cl)Cl)ccc2Cl)c(F)c1 (relative stereo) [F103, trans-2-chloro-N-(4-cyano-2-fluorophenyl)-5-(2,2-dichloro-3-(3,4-dichlorophenyl)cyclopropane-1-carboxamido)benzamide] | 50 to 100% | 50 to 100% |
| N#Cc1ccc(NC(=O)c2cc(NC(=O)[C@H]3[C@H](c4cc(Cl)c(Cl)c(Cl)c4)C3(Cl)Cl)ccc2Cl)c(F)c1 (relative stereo) [F104, trans-2-Chloro-N-(4-cyano-2-fluorophenyl)-5-(2,2-dichloro-3-(3,4,5-trichlorophenyl)cyclopropane-1-carboxamido)benzamide] | 50 to 100% | 50 to 100% |
| CN(C(=O)c1cc(NC(=O)[C@H]2[C@H](c3cc(Cl)c(Cl)c(Cl)c3)C2(Cl)Cl)ccc1F)c1ccc(C#N)cc1F (relative stereo) [F105, trans-N-(4-Cyano-2-fluorophenyl)-5-(2,2-dichloro-3-(3,4,5-trichlorophenyl)cyclopropane-1-carboxamido)-2-fluoro-N-methylbenzamide] | 50 to 100% | 50 to 100% |
| CN(C(=O)c1cc(NC(=O)[C@H]2[C@H](c3cc(Cl)cc(Cl)c3)C2(Cl)Cl)ccc1Cl)c1ccc(C#N)cc1F (relative stereo) [F106, trans-2-Chloro-N-(4-cyano-2-fluorophenyl)-5-(2,2-dichloro-3-(3,5-dichlorophenyl)cyclopropane-1-carboxamido)-N-methylbenzamide] | 50 to 100% | 50 to 100% |
| CN(C(=O)c1cc(NC(=O)[C@H]2[C@H](c3ccc(Cl)c(Cl)c3)C2(Cl)Cl)ccc1Cl)c1ccc(C#N)cc1F (relative stereo) [F107, trans-2-Chloro-N-(4-cyano-2-fluorophenyl)-5-(2,2-dichloro-3-(3,4-dichlorophenyl)cyclopropane-1-carboxamido)-N-methylbenzamide] | 50 to 100% | 50 to 100% |
| CN(C(=O)c1cc(NC(=O)[C@H]2[C@H](c3cc(Cl)c(Cl)c(Cl)c3)C2(Cl)Cl)ccc1Cl)c1ccc(C#N)cc1F (relative stereo) [F108, trans-2-Chloro-N-(4-cyano-2-fluorophenyl)-5-(2,2-dichloro-3-(3,4,5-trichlorophenyl)cyclopropane-1-carboxamido)-N-methylbenzamide] | 50 to 100% | 50 to 100% |
| O=C(Nc1ccc(F)cc1)c1cc(NC(=O)[C@H]2[C@H](c3ccccc3)C2(Cl)Cl)ccc1Cl (relative stereo) [F109, trans-2-Chloro-5-(2,2-dichloro-3-phenylcyclopropane-1-carboxamido)-N-(4-fluorophenyl)benzamide] | 50 to 100% | 50 to 100% |
| CN(C(=O)c1cc(NC(=O)[C@H]2[C@H](c3ccccc3)C2(Cl)Cl)ccc1Cl)c1ccc(F)cc1 (relative stereo) [F110, trans-2-Chloro-5-(2,2-dichloro-3-phenylcyclopropane-1-carboxamido)-N-(4-fluorophenyl)-N-methylbenzamide] | 50 to 100% | 50 to 100% |
| O=C(Nc1c(F)cccc1F)c1cc(NC(=O)[C@H]2[C@H](c3ccccc3)C2(Cl)Cl)ccc1Cl (relative stereo) [F111, trans-2-Chloro-5-(2,2-dichloro-3-phenylcyclopropane-1-carboxamido)-N-(2,6-difluorophenyl)benzamide] | 50 to 100% | 50 to 100% |
| CN(C(=S)c1cc(NC(=O)[C@H]2[C@H](c3cc(Cl)cc(Cl)c3)C2(Cl)Cl)ccc1Cl)c1ccc(F)cc1 (relative stereo) [F112, trans-2,2-Dichloro-N-(4-chloro-3-((4-fluorophenyl)(methyl)carbamothioyl)phenyl)-3-(3,5-dichlorophenyl)cyclopropane-1-carboxamide] | 50 to 100% | 50 to 100% |
| O=C(Nc1ccc(Cl)c(C(=S)Nc2ccc(F)cc2)c1)[C@H]1[C@H](c2cc(Cl)cc(Cl)c2)C1(Cl)Cl (relative stereo) [F113, trans-2,2-Dichloro-N-(4-chloro-3-((4-fluorophenyl)carbamothioyl)phenyl)-3-(3,5-dichlorophenyl)cyclopropane-1-carboxamide] | 50 to 100% | 50 to 100% |
| CSc1ccc(NC(=O)[C@H]2[C@H](c3cc(Cl)cc(Cl)c3)C2(Cl)Cl)cc1C(=O)Nc1ccc(F)cc1 (relative stereo) [F115, trans-5-(2,2-Dichloro-3-(3,5-dichlorophenyl)cyclopropane-1-carboxamido)-N-(4-fluorophenyl)-2-(methylthio)benzamide] | 50 to 100% | 50 to 100% |
| Cc1c(Cl)cc([C@H]2[C@H](C(=O)Nc3ccc(Cl)c(C(=O)Nc4ccc(F)cc4)c3)C2(Cl)Cl)cc1Cl (relative stereo) [F119, trans-2-Chloro-5-(2,2-dichloro-3-(3,5-dichloro-4-methylphenyl)cyclopropane-1-carboxamido)-N-(4-fluorophenyl)benzamide] | 50 to 100% | 50 to 100% |
